Earlier results as cited in patent US20210228483A1, “LOW GLYCEMIC GUMMY COMPOSITION AND METHODS OF MAKING AND USING THEREOF” (Seattle Gummy Company, priority 2018, published 2021).

How the values were obtained:
[1] = in vivo
blood glucose levels = details: as shown in FIG. 3 (trehalose) and FIG. 4 (isomaltulose)

Structure (SMILES)	GI value (glycemic index) [1]	spike in glucose levels (blood glucose levels)
OC[C@H]1O[C@@](CO)(O[C@H]2O[C@H](CO)[C@@H](O)[C@H](O)[C@H]2O)[C@@H](O)[C@@H]1O [sucrose, reference compound]	63	–
OC[C@H]1O[C@H](O[C@H]2O[C@H](CO)[C@@H](O)[C@H](O)[C@H]2O)[C@H](O)[C@@H](O)[C@@H]1O [trehalose]	–	does not cause a spike in glucose levels
OC[C@H]1O[C@H](OC[C@H]2OC(O)(CO)[C@@H](O)[C@@H]2O)[C@H](O)[C@@H](O)[C@@H]1O (stereo partly shown) [isomaltulose]	about 30	does not cause a spike in glucose levels
